Where two headings read alike, the source gives them in different places.
What was measured:
Aβ42 = assay: Thioflavin T; type: biochemical; settings: 37 °C
Aβ40-HN interactions = settings: cited from earlier work
[1] = target: Amyloid-β (Aβ) of the conditioned media of A549 and H1299 cells (human (endogenous in A549 and H1299)); assay: ELISA
[2] = target: Amyloid-β (Aβ) of the conditioned media of A549 and H1299 cells (human (endogenous in A549 and H1299)); assay: ELISA; remark: listed apart in the source
[3] = test system: HN-Aβ (Aβ40 or Aβ42) complex; assay: ELISA, HN-Aβ binding with increasing AChE, without or with IGFBP-3
Aβ40 = assay: Thioflavin T; type: biochemical; settings: 37 °C
[4] = test system: amyloid complexes in A549 conditioned medium; type: binding, human
[5] = test system: 6E10-bound Aβ complex from A549 conditioned medium; assay: 6E10 capture ELISA of A549 conditioned medium with exogenous IGFBP-3; type: binding, human
[6] = test system: 6E10-bound Aβ complex from H1299 conditioned medium; assay: 6E10 capture ELISA of H1299 conditioned medium with exogenous IGFBP-3; type: binding, human
[7] = test system: Aβ / amyloid oligomers and fibrils in A549 medium; assay: Dot blot of immunodepleted A549 medium; type: cell-based, human; settings: A549 medium immunodepleted of the named component; for anti-A11 oligomer signal after immunodepletion: Figure 9C,F
[8] = test system: amyloid oligomers and fibrils in A549 medium; assay: Dot blot of A549 medium with exogenous IGFBP-3; type: cell-based, human; settings: 400 nM vs 100 nM IGFBP-3, A549 medium
[9] = test system: amyloid oligomers and fibrils in H1299 medium; assay: Dot blot of H1299 medium with exogenous IGFBP-3; type: cell-based, human
Aβ in A549 medium = assay: Aβ ELISA; type: cell-based, human; settings: Figure 11A; A549 medium immunodepleted of the named component
Aβ in H1299 medium = assay: Aβ ELISA; type: cell-based, human; settings: Figure 11B; H1299 medium immunodepleted of the named component
A549 cells [10] = assay: MTT assay, A549 cells; type: cell-based, human; settings: medium immunodepleted of the named component, 48 h
H1299 cells [11] = assay: MTT assay, H1299 cells; type: cell-based, human; settings: medium immunodepleted of the named component, 48 h
A549 cells [12] = assay: Apoptosis, annexin V ELISA, A549 cells; type: cell-based, human; settings: medium immunodepleted of the named component, 48 h
H1299 cells [13] = assay: Apoptosis, annexin V ELISA, H1299 cells; type: cell-based, human; settings: medium immunodepleted of the named component, 48 h
[14] = test system: A549 human lung cancer cell; settings: residues 215–232 of IGFBP-3 bind hyaluronan, blocking CD44; cited from earlier work
biotin-humanin [15] = assay: ELISA
biotin-humanin [16] = assay: ELISA; remark: listed apart in the source
biotin-humanin [17] = assay: ELISA; remark: listed apart in the source
Humanin (HN) peptide = assay: ELISA
biotin-humanin [18] = assay: ELISA; remark: listed apart in the source
[19] = test system: complex between HN and Aβ40; assay: ELISA, IGFBP-3 competition for the HN-Aβ40 complex; type: binding; settings: AChE (100 nM), HN (100 nM)
[20] = test system: complex between HN and Aβ42; assay: ELISA, IGFBP-3 competition for the HN-Aβ42 complex; type: binding; settings: AChE (100 nM), HN (100 nM)
[21] = test system: Aβ from A549 conditioned medium bound to 6E10; assay: 6E10 capture ELISA of A549 conditioned medium with exogenous HN; type: binding, human
[22] = test system: Aβ from H1299 conditioned medium bound to 6E10; assay: 6E10 capture ELISA of H1299 conditioned medium with exogenous HN; type: binding, human
[23] = test system: Aβ / amyloid oligomers and fibrils in H1299 medium; assay: Dot blot of immunodepleted H1299 medium; type: cell-based, human; settings: Figure 9B,E; H1299 medium immunodepleted of the named component
Aβ (12–28) and Aβ (1–16) = settings: cited from earlier work
[24] = Figure 8A, added IGFBP-3, cell line not stated
[25] = Figure 8A, cell line not stated
[26] = Figure 8B, A549 medium, added IGFBP-3

## Aβ42 [reference compound]
Aβ42; Aβ42 2 μM, 335 min
  aggregation kinetics compared to Aβ40 (ThT): faster aggregation kinetics

## HN (5–15) (GFSCLLLLTSE; Humanin; UniProt Q8IVG9 5-15, looked up, fragment)
Aβ40-HN interactions
  inhibition of Aβ40-HN interactions: more effective inhibitor of Aβ40-HN interactions than Aβ (17–28)

## HN (5–15, L11S) (GFSCLLSLTSE; Humanin; UniProt Q8IVG9 5-15, looked up, variant L11S)
Aβ40-HN interactions
  inhibition of Aβ40-HN interactions: reduced the ability of HN (5–15) to compete with the Aβ40-HN interactions

## Humanin (HN) peptide
[1]
  fold increase of the HN signal at 400 nM added HN over no added HN: 2.5 fold
[2]
  fold decrease of AChE bound to Aβ with added HN: 1.5 fold
  fold increase of the HN signal at 400 nM added HN over no added HN: 2.5 fold

## IGFBP-3
[3]; 2 μM IGFBP-3, HN and Aβ 0.2 μM
  HN-Aβ binding signal: completely abolished the signal
Aβ40; Aβ40 2 μM, HN 2 μM, IGFBP-3 2 μM, 335 min, no AChE
  effect of 2 μM IGFBP-3 on HN block of Aβ40 aggregation (ThT): reduced the ability of HN to block aggregation of Aβ, but only partially
Aβ40; Aβ40 2 μM, HN 2 μM, IGFBP-3 6 μM, 335 min, no AChE
  effect of 6 μM IGFBP-3 on HN block of Aβ40 aggregation (ThT): completely abolished the ability of HN to block the aggregation of Aβ
Aβ40; Aβ40, AChE, HN each 2 μM, IGFBP-3 6 μM
  Aβ40 aggregation with 6 μM IGFBP-3 in presence of AChE and HN (ThT): aggregation kinetics comparable to those of Aβ incubated with only AChE
Aβ42; Aβ42 2 μM, HN 2 μM, IGFBP-3 2 μM, 335 min, no AChE
  effect of 2 μM IGFBP-3 on HN block of Aβ42 aggregation (ThT): reduced the ability of HN to block aggregation of Aβ, but only partially
Aβ42; Aβ42 2 μM, HN 2 μM, IGFBP-3 6 μM, 335 min, no AChE
  effect of 6 μM IGFBP-3 on HN block of Aβ42 aggregation (ThT): completely abolished the ability of HN to block the aggregation of Aβ
Aβ42; Aβ42, AChE, HN each 2 μM, IGFBP-3 6 μM
  Aβ42 aggregation with 6 μM IGFBP-3 in presence of AChE and HN (ThT): aggregation kinetics comparable to those of Aβ incubated with only AChE
[4]
  detection in complex with any of the antibodies tested (6E10, 4G8, A11, LOC): No IGFBP-3 was detected
[5]; A549 medium, Figure 8A-C
  IGFBP-3 detection in 6E10 complex after adding 400 nM IGFBP-3: did not result in detection of IGFBP-3
[5]; [24]
  A11 (amyloid oligomer) signal fold increase relative to control: ~ 3.9 fold
  LOC (amyloid fibrils) signal fold increase relative to control: ~ 1.7 fold
[5]; [25]
  HN in 6E10 complex upon addition of 50 nM IGFBP-3: diminished
  HN in 6E10 complex upon addition of 100 nM IGFBP-3: completely depleted
[5]; [26]
  A11 signal fold increase relative to control without IGFBP-3: ~ 3.9 fold
  LOC signal fold increase relative to control with no IGFBP-3: ~ 1.59 fold
[6]; Figure 8A-C
  IGFBP-3 detection in 6E10 complex after adding 400 nM IGFBP-3: did not result in detection of IGFBP-3
[6]; Figure 8C
  LOC signal with added IGFBP-3: no signal was observed
[6]; Figure 8C, added IGFBP-3
  A11 signal fold increase relative to control with no IGFBP-3: ~ 2.5 fold
[7]
  anti-A11 oligomer signal after immunodepletion: No difference
[8]
  further effect of 400 nM IGFBP-3 on A11/LOC signals: did not have any further effect
[9]; 100 nM IGFBP-3 added, H1299 medium (no increase)
  anti-LOC signal, cell media in which increase was observed: only in the A549 medium
[9]; 400 nM vs 100 nM IGFBP-3, H1299 medium
  further effect of 400 nM IGFBP-3 on A11/LOC signals: did not have any further effect
Aβ in A549 medium
  effect of immunodepletion on total Aβ or oligomer: No effects
Aβ in H1299 medium
  effect of immunodepletion on total Aβ or oligomer: No effects
A549 cells [10]
  cell viability after treatment with immunodepleted medium: increased the A549 cell viability
H1299 cells [11]
  cell viability after treatment with immunodepleted medium: no effect
A549 cells [12]
  apoptosis after treatment with immunodepleted medium: reduced apoptosis
H1299 cells [13]
  apoptosis after treatment with immunodepleted medium: no effect
[14]
  A549 cell viability: reducing A549 human lung cancer cell viability

## Recombinant human insulin-like growth factor binding protein-3 (IGFBP-3) (from UniProt P17936 28-291) (natural protein)
biotin-humanin [15]
  IC50: 58 nM
biotin-humanin [16]
  IC50: 74 nM
biotin-humanin [17]
  IC50: 39 nM
Humanin (HN) peptide
  percent decrease of the biotinylated Aβ signal on HN at 0.2 μM IGFBP-3: 50%
biotin-humanin [18]
  IC50: 93 nM

B1: AChE (protein)
chain: EGREDAELLVTVRGGRLRGIRLKTPGGPVSAFLGIPFAEPPMGPRRFLPPEPKQPWSGVVDATTFQSVCYQYVDTLYPGFEGTEMWNPNRELSEDCLYLNVWTPYPRPTSPTPVLVWIYGGGFYSGASSLDVYDGRFLVQAERTVLVSMNYRVGAFGFLALPGSREAPGNVGLLDQRLALQWVQENVAAFGGDPTSVTLFGESAGAASVGMHLLSPPSRGLFHRAVLQSGAPNGPWATVGMGEARRRATQLAHLVGCPPGGTGGNDTELVACLRTRPAQVLVNHEWHVLPQESVFRFSFVPVVDGDFLSDTPEALINAGDFHGLQVLVGVVKDEGSYFLVYGAPGFSKDNESLISRAEFLAGVRVGVPQVSDLAAEAVVLHYTDWLHPEDPARLREALSDVVGDHNVVCPVAQLAGRLAAQGARVYAYVFEHRASTLSWPLWMGVPHGYEIEFIFGIPLDPSRNYTAEEKIFAQRLMRYWANFARTGDPNEPRDPKAPQWPPYTAGAQQYVSLDLRPLEVRRGLRAQACAFWNRFLPKLLSATDTLDEAERQWKAEFHRWSSYMVHWKNQFDHYSKQDRCSDL
[19]
  effect of added AChE on IGFBP-3 competition with Aβ40 for HN: no difference
[20]
  effect of added AChE on IGFBP-3 competition with Aβ42 for HN: no difference
[3]; 0.2 or 2 μM IGFBP-3 present
  change in signal with increasing AChE in presence of IGFBP-3: no change in the signal
Aβ40; Aβ40 2 μM, AChE 2 μM, 335 min
  aggregation of Aβ40 with AChE (ThT): increased aggregation with changes in both the lag phase and the final ThT fluorescence value
Aβ42; Aβ42 2 μM, AChE 2 μM, 335 min
  aggregation of Aβ42 with AChE (ThT): increased aggregation with changes in both the lag phase and the final ThT fluorescence value
[21]
  AChE bound to Aβ (6E10 capture): detectable levels
[22]
  AChE bound to Aβ (6E10 capture): Barely detectable levels
[7]; Figure 9B,E
  Aβ detected with anti-6E10 after immunodepletion: decreased the amount of Aβ
[7]
  anti-A11 oligomer signal after immunodepletion: No difference
[23]
  Aβ detected with anti-6E10 after immunodepletion: no change
Aβ in H1299 medium
  effect of immunodepletion on total Aβ or oligomer: No change
A549 cells [10]
  cell viability after treatment with immunodepleted medium: increased the A549 cell viability
H1299 cells [11]
  cell viability after treatment with immunodepleted medium: no effect
A549 cells [12]
  apoptosis after treatment with immunodepleted medium: reduced apoptosis
H1299 cells [13]
  apoptosis after treatment with immunodepleted medium: no effect
Aβ (12–28) and Aβ (1–16)
  binding to Aβ fragments: binds to Aβ (12–28) and the Aβ (1–16) peptide

Source: paper PMC8193794 (Biochemistry, 2020)
